ChEMBL document CHEMBL3045134, “Synthesis, molecular modeling and anti-inflammatory screening of new 1,2,3-benzotriazinone derivatives” (Med Chem Res, 2012)

Legend:
Rattus norvegicus [1] = test: Anti-inflammatory activity carrageenan-induced paw edema inRattus norvegicus albino (rat) assessed as paw thickness at 9 mg/kg, ip administered 1 hr prior to carrageenan-induced measured 1 hr post challenge; format: functional; details: route intraperitoneal
Rattus norvegicus [2] = test: Anti-inflammatory activity inRattus norvegicus albino (rat) assessed as reduction in carrageenan-induced paw edema at 10 mg/kg, ip administered 1 hr prior to carrageenan-induced measured 1 to 4 hr post challenge relative to indomethacin; format: functional; design: scale not given: the % may be the effect or the level left; details: route intraperitoneal
Rattus norvegicus [3] = test: Ulcerogenicity in Rattus norvegicus albino (rat) at 9 mg/kg/day, po qd for 3 successive days; format: toxicity, organism-based; design: route oral; details: in vivo
Rattus norvegicus [4] = test: Anti-inflammatory activity carrageenan-induced paw edema inRattus norvegicus albino (rat) assessed as paw thickness at 9 mg/kg, ip administered 1 hr prior to carrageenan-induced measured 3 hr post challenge; format: functional; details: route intraperitoneal
Rattus norvegicus [5] = test: Anti-inflammatory activity carrageenan-induced paw edema in Rattus norvegicus albino (rat) at 9 mg/kg, ip administered 1 hr prior to carrageenan-induced measured 1 to 4 hr post challenge relative to control; format: functional; details: route intraperitoneal
Rattus norvegicus [6] = test: Anti-inflammatory activity carrageenan-induced paw edema inRattus norvegicus albino (rat) assessed as paw thickness at 9 mg/kg, ip administered 1 hr prior to carrageenan-induced measured 2 hr post challenge; format: functional; details: route intraperitoneal
Rattus norvegicus [7] = test: Anti-inflammatory activity carrageenan-induced paw edema in Rattus norvegicus albino (rat) assessed as paw thickness at 9 mg/kg, ip administered 1 hr prior to carrageenan-induced measured 4 hr post challenge; format: functional; details: route intraperitoneal
Rattus norvegicus [8] = test: Ulcerogenicity in Rattus norvegicus albino (rat) at 0.9 mg/100 g/day, po qd for 3 successive days; format: toxicity, organism-based; details: in vivo
Rattus norvegicus [9] = test: Anti-inflammatory activity carrageenan-induced paw edema in Rattus norvegicus albino (rat) assessed as paw thickness at 10 mg/kg, ip administered 1 hr prior to carrageenan-induced measured 1 hr post challenge; format: functional; details: route intraperitoneal
Rattus norvegicus [10] = test: Anti-inflammatory activity carrageenan-induced paw edema in Rattus norvegicus albino (rat) assessed as paw thickness at 10 mg/kg, ip administered 1 hr prior to carrageenan-induced measured 4 hr post challenge; format: functional; details: route intraperitoneal
Rattus norvegicus [11] = test: Anti-inflammatory activity carrageenan-induced paw edema in Rattus norvegicus albino (rat) assessed as paw thickness at 10 mg/kg, ip administered 1 hr prior to carrageenan-induced measured 3 hr post challenge; format: functional; details: route intraperitoneal
Rattus norvegicus [12] = test: Anti-inflammatory activity carrageenan-induced paw edema in Rattus norvegicus albino (rat) at 10 mg/kg, ip administered 1 hr prior to carrageenan-induced measured 1 to 4 hr post challenge relative to control; format: functional; details: route intraperitoneal
Rattus norvegicus [13] = test: Anti-inflammatory activity carrageenan-induced paw edema in Rattus norvegicus albino (rat) assessed as paw thickness at 10 mg/kg, ip administered 1 hr prior to carrageenan-induced measured 2 hr post challenge; format: functional; details: route intraperitoneal

| SMILES | Activity (Rattus norvegicus [1]) [mm] | Activity (Rattus norvegicus [2]) [%] | UI (Rattus norvegicus [3]) | Activity (Rattus norvegicus [4]) [mm] | Activity (Rattus norvegicus [5]) [%] | Activity (Rattus norvegicus [6]) [mm] | Activity (Rattus norvegicus [7]) [mm] | UI (Rattus norvegicus [8]) | Activity (Rattus norvegicus [9]) [mm] | Activity (Rattus norvegicus [10]) [mm] | Activity (Rattus norvegicus [11]) [mm] | Activity (Rattus norvegicus [12]) [%] | Activity (Rattus norvegicus [13]) [mm] |
| --- | --- | --- | --- | --- | --- | --- | --- | --- | --- | --- | --- | --- | --- |
| Cc1ccc(-c2cc(C(F)(F)F)nn2-c2ccc(S(N)(=O)=O)cc2)cc1 [CELECOXIB] | 3.22 | 57.0556 | 120 | 3.75 | 42.94 | 3.37 | 3.87 |  |  |  |  |  |  |
| CC(=O)c1ccc(NC(=O)Cn2nnc3ccccc3c2=O)cc1 | 3.87 | 47.7499 |  | 3.37 | 52.25 | 3.87 | 4.37 | 130 |  |  |  |  |  |
| COc1ccc2c(c1)c(CC(=O)O)c(C)n2C(=O)c1ccc(Cl)cc1 [INDOMETHACIN] |  |  | 450 |  |  |  |  |  | 2.12 | 3.75 | 3.25 | 100 | 2.25 |
| O=C(Cn1nnc2ccccc2c1=O)Nc1ccccc1 | 4.5 | 41.7838 |  | 4.1 | 58.22 | 4.25 | 3.8 | 300 |  |  |  |  |  |
| Cc1cc(C)n(C(=O)Cn2nnc3ccccc3c2=O)n1 | 2.12 | 33.313 |  | 3.5 | 66.69 | 2.75 | 3.75 | 140 |  |  |  |  |  |
| Cc1ccc(NC(=O)Cn2nnc3ccccc3c2=O)cc1 | 2.62 | 36.7746 |  | 4 | 63.23 | 3.1 | 4.12 | 140 |  |  |  |  |  |
| COc1ccccc1NC(=O)Cn1nnc2ccccc2c1=O | 3.8 | 52.1686 |  | 4 | 47.8314 | 5.25 | 4.25 | 210 |  |  |  |  |  |
| O=c1c2ccccc2nnn1Cc1nnc(Nc2ccccc2)o1 | 3.75 | 29.3016 |  | 4.62 | 70.7 | 4.2 | 5.25 | 340 |  |  |  |  |  |
| Cc1cc(-c2ccccc2)n(C(=O)Cn2nnc3ccccc3c2=O)n1 | 3.25 | 54.2048 |  | 4.5 | 45.8 | 4.37 | 3.75 | 120 |  |  |  |  |  |
| COc1cccc(NC(=O)Cn2nnc3ccccc3c2=O)c1 | 2.75 | 38.7294 |  | 3.25 | 61.27 | 3.12 | 3.25 | 240 |  |  |  |  |  |
| O=c1c2ccccc2nnn1Cc1nnc(Nc2ccccc2)s1 | 3.75 | 29.3016 |  | 4.62 | 70.7 | 4.2 | 5.25 | 340 |  |  |  |  |  |
| O=C(Cn1nnc2ccccc2c1=O)N/N=c1/scc(-c2ccccc2)n1-c1ccccc1 | 4 | 45.9377 |  | 5 | 54.06 | 4.75 | 5.12 | 300 |  |  |  |  |  |
| Cc1ccc(C)n1NC(=O)Cn1nnc2ccccc2c1=O | 3.75 | 34.046 |  | 4.75 | 65.95 | 4.75 | 4.25 | 220 |  |  |  |  |  |
| Cc1ccccc1NC(=O)Cn1nnc2ccccc2c1=O | 4.4 | 33.9238 |  | 4 | 66.08 | 4 | 4.25 | 240 |  |  |  |  |  |
